In patent US12448399B2, “Cereblon-based KRAS degrading PROTACs and uses related thereto” (Arvinas Operations, Inc., priority 2023, dated 2025):

Target: T1, KRas-G12D (Homo sapiens, UniProt P01116, G12D)
T1 construct: insert the HiBiT tag onto the N-terminus of one or more of the endogenous KRas alleles; host or cells: AsPC-1 HiBiT-KRasG12D knock-in clone (one tagged allele, two untagged KRasG12D alleles)
Experiment: HiBiT Degradation Assay (G12D), AsPC-1 HiBiT-KRasG12D cells, 24 hr
Assay type: cell-based
Conditions: for Dmax: ASPC1, AsPC-1 cells, maximum degradation observed; for DC50: AsPC-1 cells
Method in brief: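 Degradation was read after 24 hr compound exposure (0.5% DMSO, 37° C) by Nano-Glo HiBiT lytic luminescence in AsPC-1 cells carrying a HiBiT tag on one of three KRasG12D alleles. Signal relative to DMSO gave DC50 and Dmax by 4-parameter fit; alamar blue fluorescence monitored cytotoxicity.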

T1 sequence (P01116 1-188 isoform P01116-2 G12D): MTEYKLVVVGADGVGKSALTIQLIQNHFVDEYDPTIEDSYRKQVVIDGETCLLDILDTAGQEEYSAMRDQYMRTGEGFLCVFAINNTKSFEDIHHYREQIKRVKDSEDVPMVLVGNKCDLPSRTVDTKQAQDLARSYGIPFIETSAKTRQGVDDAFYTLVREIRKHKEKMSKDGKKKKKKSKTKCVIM

Row | SMILES | Dmax | DC50
1 | C#Cc1c(F)ccc2cc(O)cc(-c3ncc4c(N5CC6CCC(C5)N6)nc(OCCN5CCC(CN6CCN(CC7CCN(c8cc(C)c9c(c8F)CN(C8CCC(=O)NC8=O)C9=O)CC7)CC6)CC5)nc4c3F)c12 (centres unmarked) [Compound 148, 3-{5-[4-({4-[(1-{2-[(4-{3,8-diazabicyclo[3.2.1]octan-3-yl}-7-(8-ethynyl-7-fluoro-3-hydroxynaphthalen-1-yl)-8-fluoropyrido[4,3-d]pyrimidin-2-yl)oxy]ethyl}piperidin-4-yl)methyl]piperazin-1-yl}methyl)piperidin-1-yl]-4-fluoro-7-methyl-1-oxo-2,3-dihydro-1H-isoindol-2-yl}piperidine-2,6-dione] | > 70% | < 5.1 µM
2 | C#Cc1c(F)ccc2cc(O)cc(-c3ncc4c(N5CC6CCC(C5)N6)nc(OCCN5CCC(CC6CCN(CC7CCN(c8cc(C)c9c(c8F)CN(C8CCC(=O)NC8=O)C9=O)CC7)CC6)CC5)nc4c3F)c12 (centres unmarked) [Compound 149, 3-{5-[4-({4-[(1-{2-[(4-{3,8-diazabicyclo[3.2.1]octan-3-yl}-7-(8-ethynyl-7-fluoro-3-hydroxynaphthalen-1-yl)-8-fluoropyrido[4,3-d]pyrimidin-2-yl)oxy]ethyl}piperidin-4-yl)methyl]piperidin-1-yl}methyl)piperidin-1-yl]-4-fluoro-7-methyl-1-oxo-2,3-dihydro-1H-isoindol-2-yl}piperidine-2,6-dione] | > 70% | < 5.1 µM
3 | C#Cc1c(F)ccc2cc(O)cc(-c3ncc4c(N5CC6CCC(C5)N6)nc(OCCN5CCC6(CC5)CN(CC5CCN(c7cc(C)c8c(c7F)CN(C7CCC(=O)NC7=O)C8=O)CC5)C6)nc4c3F)c12 (centres unmarked) [Compound 150] |  | < 5.1 µM
4 | C#Cc1c(F)ccc2cc(O)cc(-c3ncc4c(N5CC6CCC(C5)N6)nc(OC[C@@H]5C[C@@H](OC6CCN(CC7CCN(c8cc(C)c9c(c8F)CN(C8CCC(=O)NC8=O)C9=O)CC7)CC6)CN5C)nc4c3F)c12 (stereo partly drawn) [Compound 151, 3-(5-{4-[(4-{[(3R,5S)-5-{[(4-{3,8-diazabicyclo[3.2.1]octan-3-yl}-7-(8-ethynyl-7-fluoro-3-hydroxynaphthalen-1-yl)-8-fluoropyrido[4,3-d]pyrimidin-2-yl)oxy]methyl}-1-methylpyrrolidin-3-yl]oxy}piperidin-1-yl)methyl]piperidin-1-yl}-4-fluoro-7-methyl-1-oxo-2,3-dihydro-1H-isoindol-2-yl)piperidine-2,6-dione] | > 70% | < 5.1 µM
5 | C#Cc1c(F)ccc2cc(O)cc(-c3ccc4c(N5CC6CCC(C5)N6)nc(OCCN5CCC(CC6CCN(CC7CCN(c8ccc9c(c8F)CN(C8CCC(=O)NC8=O)C9=O)CC7)CC6)CC5)nc4c3F)c12 (centres unmarked) [Compound 152] |  | < 5.1 µM
6 | C#Cc1c(F)ccc2cc(O)cc(-c3ncc4c(N5CC6CCC(C5)N6)nc(OCCN5CCC6(CC5)CCN(CC5CCN(c7cc(C)c8c(c7F)CN(C7CCC(=O)NC7=O)C8=O)CC5)CC6)nc4c3F)c12 (centres unmarked) [Compound 153, 3-(5-{4-[(9-{2-[(4-{3,8-diazabicyclo[3.2.1]octan-3-yl}-7-(8-ethynyl-7-fluoro-3-hydroxynaphthalen-1-yl)-8-fluoropyrido[4,3-d]pyrimidin-2-yl)oxy]ethyl}-3,9-diazaspiro[5.5]undecan-3-yl)methyl]piperidin-1-yl}-4-fluoro-7-methyl-1-oxo-2,3-dihydro-1H-isoindol-2-yl)piperidine-2,6-dione] | > 70% | < 5.1 µM
7 | C#Cc1c(F)ccc2cc(O)cc(-c3ncc4c(N5CC6CCC(C5)N6)nc(OCCN5CCC(CN6CC7(CCN(c8cc(C)c9c(c8F)CN(C8CCC(=O)NC8=O)C9=O)CC7)C6)CC5)nc4c3F)c12 (centres unmarked) [Compound 154, 3-(5-{2-[(1-{2-[(4-{3,8-diazabicyclo[3.2.1]octan-3-yl}-7-(8-ethynyl-7-fluoro-3-hydroxynaphthalen-1-yl)-8-fluoropyrido[4,3-d]pyrimidin-2-yl)oxy]ethyl}piperidin-4-yl)methyl]-2,7-diazaspiro[3.5]nonan-7-yl}-4-fluoro-7-methyl-1-oxo-2,3-dihydro-1H-isoindol-2-yl)piperidine-2,6-dione] | > 70% | < 5.1 µM
8 | C#Cc1c(F)ccc2cccc(-c3ncc4c(N5CC6CCC(C5)N6)nc(OCCN5CCC(CN6CC7(CCN(c8ccc9c(c8F)CN(C8CCC(=O)NC8=O)C9=O)CC7)C6)CC5)nc4c3F)c12 (centres unmarked) [Compound 155] |  | > 1 µM
9 | C#Cc1c(F)ccc2cccc(-c3ncc4c(N5CC6CCC(C5)N6)nc(OCCN5CCC6(CC5)CCN(CC5CCN(c7ccc8c(c7F)CN(C7CCC(=O)NC7=O)C8=O)CC5)CC6)nc4c3F)c12 (centres unmarked) [Compound 156] |  | > 1 µM
10 | C#Cc1c(F)ccc2cccc(-c3ncc4c(N5CC6CCC(C5)N6)nc(OCCN5CCC(CC6CCN(CC7CCN(c8cccc9c8CN(C8CCC(=O)NC8=O)C9=O)CC7)CC6)CC5)nc4c3F)c12 (centres unmarked) [Compound 157] |  | > 1 µM
11 | CCc1cccc2c(F)c(O)cc(-c3ncc4c(N5CC6CCC(C5)N6)nc(OCCN5CCC(CC6CCN(c7cccc8c7CN(C7CCC(=O)NC7=O)C8=O)CC6)CC5)nc4c3F)c12 (centres unmarked) [Compound 158] | ≤ 25% | > 1 µM
12 | C#Cc1c(F)ccc2cc(O)cc(-c3ncc4c(N5CC6CCC(C5)N6)nc(OCCN5CCC(CN6CCN(CC7CCN(c8ccc9c(c8F)n(C(C)C)c(=O)n9C8CCC(=O)NC8=O)CC7)CC6)CC5)nc4c3F)c12 (centres unmarked) [Compound 159, 3-{5-[4-({4-[(1-{2-[(4-{3,8-diazabicyclo[3.2.1]octan-3-yl}-7-(8-ethynyl-7-fluoro-3-hydroxynaphthalen-1-yl)-8-fluoropyrido[4,3-d]pyrimidin-2-yl)oxy]ethyl}piperidin-4-yl)methyl]piperazin-1-yl}methyl)piperidin-1-yl]-4-fluoro-2-oxo-3-(propan-2-yl)-2,3-dihydro-1H-1,3-benzodiazol-1-yl}piperidine-2,6-dione] | > 70% | < 5.1 µM
13 | C#Cc1c(F)ccc2cc(O)cc(-c3ncc4c(N5CC6CCC(C5)N6)nc(OCCN5CCC(C)(CN6CCN(CC7CCN(c8ccc9c(c8)n(C)c(=O)n9C8CCC(=O)NC8=O)CC7)CC6)CC5)nc4c3F)c12 (centres unmarked) [Compound 160, 3-{5-[4-({4-[(1-{2-[(4-{3,8-diazabicyclo[3.2.1]octan-3-yl}-7-(8-ethynyl-7-fluoro-3-hydroxynaphthalen-1-yl)-8-fluoropyrido[4,3-d]pyrimidin-2-yl)oxy]ethyl}-4-methylpiperidin-4-yl)methyl]piperazin-1-yl}methyl)piperidin-1-yl]-3-methyl-2-oxo-2,3-dihydro-1H-1,3-benzodiazol-1-yl}piperidine-2,6-dione] | > 70% | < 5.1 µM
14 | C#Cc1c(F)ccc2cc(O)cc(-c3ncc4c(N5CC6CCC(C5)N6)nc(OCCN5CCC(C)(CC6CCN(CC7CCN(c8ccc9c(c8)n(C)c(=O)n9C8CCC(=O)NC8=O)CC7)CC6)CC5)nc4c3F)c12 (centres unmarked) [Compound 161, 3-{5-[4-({4-[(1-{2-[(4-{3,8-diazabicyclo[3.2.1]octan-3-yl}-7-(8-ethynyl-7-fluoro-3-hydroxynaphthalen-1-yl)-8-fluoropyrido[4,3-d]pyrimidin-2-yl)oxy]ethyl}-4-methylpiperidin-4-yl)methyl]piperidin-1-yl}methyl)piperidin-1-yl]-3-methyl-2-oxo-2,3-dihydro-1H-1,3-benzodiazol-1-yl}piperidine-2,6-dione] | > 70% | < 5.1 µM
15 | C#Cc1c(F)ccc2cc(O)cc(-c3ncc4c(N5CC6CCC(C5)N6)nc(OCCN5CCN(CC6CCN(CC7CCN(c8ccc9c(c8)n(C)c(=O)n9C8CCC(=O)NC8=O)CC7)CC6)CC5(C)C)nc4c3F)c12 (centres unmarked) [Compound 162, 3-{5-[4-({4-[(4-{2-[(4-{3,8-diazabicyclo[3.2.1]octan-3-yl}-7-(8-ethynyl-7-fluoro-3-hydroxynaphthalen-1-yl)-8-fluoropyrido[4,3-d]pyrimidin-2-yl)oxy]ethyl}-3,3-dimethylpiperazin-1-yl)methyl]piperidin-1-yl}methyl)piperidin-1-yl]-3-methyl-2-oxo-2,3-dihydro-1H-1,3-benzodiazol-1-yl}piperidine-2,6-dione] | > 70% | < 5.1 µM
16 | C#Cc1c(F)ccc2cc(O)cc(-c3ncc4c(N5CC6CCC(C5)N6)nc(OCCN5CCC(CC6CCN(CC7CCN(c8ccc9c(c8F)CN([C@@H]8CCC(=O)NC8=O)C9=O)CC7)CC6)CC5)nc4c3F)c12 [Compound 163, (3R)-3-{5-[4-({4-[(1-{2-[(4-{3,8-diazabicyclo[3.2.1]octan-3-yl}-7-(8-ethynyl-7-fluoro-3-hydroxynaphthalen-1-yl)-8-fluoropyrido[4,3-d]pyrimidin-2-yl)oxy]ethyl}piperidin-4-yl)methyl]piperidin-1-yl}methyl)piperidin-1-yl]-4-fluoro-1-oxo-2,3-dihydro-1H-isoindol-2-yl}piperidine-2,6-dione] | > 70% | < 5.1 µM
17 | C#Cc1c(F)ccc2cc(O)cc(-c3ncc4c(N5CC6CCC(C5)N6)nc(OC[C@@H]5C[C@@H](OC6CCN(CC7CN(c8ccc9c(c8)CN(C8CCC(=O)NC8=O)C9=O)C7)CC6)CN5C)nc4c3F)c12 (stereo partly drawn) [Compound 164, 3-(5-{3-[(4-{[(3R,5S)-5-{[(4-{3,8-diazabicyclo[3.2.1]octan-3-yl}-7-(8-ethynyl-7-fluoro-3-hydroxynaphthalen-1-yl)-8-fluoropyrido[4,3-d]pyrimidin-2-yl)oxy]methyl}-1-methylpyrrolidin-3-yl]oxy}piperidin-1-yl)methyl]azetidin-1-yl}-1-oxo-2,3-dihydro-1H-isoindol-2-yl)piperidine-2,6-dione] | > 70% | < 5.1 µM
